# Test results from patent US11897969B2, “Inhibition of oxidation-specific epitopes to treat ischemic reperfusion injury” (The Regents of the University of California, priority 2017, dated 2024).
# Where “and” joins values, the source holds several entries; their conditions need not be identical. Identical values can stand only once.
# B1: E06-scFv: single chain variable antibody fragment of E06 (heavy and light variable regions joined by 15-amino acid linker), expressed in transgenic mice (protein)
# scFv: DAAQPARRAVRSLDIVMTQSPSSLSVSAGKKVTISCTASESLYSSKHKVHYLAWYQKKPEQSPKLLIYGASNRYIGVPDRFTGSGSGTDFTLTISSVQVEDLTHYYCAQFYSYPLTFGAGTKLEIKGGGGSGGGGSGGGGSEVKLVESGGGLVQPGGSLRLSCATSGFTFSDFYMEWVRQAPGKRLEWIAASRNKANDYTTEYADSVKGRFIVSRDTSQSILYLQMNALRAEDTAIYYCARDYYGSSYWYFDVWGAGTTVTVSSRGGPEQKLISEEDLNSAVD
# Assays:
# [1] = test system: neonatal rat cardiomyocytes (NNCM); assay: In vitro OxPC treatment and assessment of cell viability (calcein-AM / ethidium homodimer-1); assay type: cell-based; conditions: 4 hours
# From the text: Cell culture of rat cardiomyocytes. All animal experiments performed conform to the NIH guidelines regarding animal experimentation. Neonatal rat cardiomyocytes (NNCM) were isolated from 1-2 day old Sprague-Dawley rat pups. Whole hearts were excised from rat pups by midline sternotomy after cervical dislocation. Hearts were washed and minced to adequately break up macroscopic structures before re-washing with cold filter sterilized phosphate buffered saline (PBS) containing 10 g/L of glucose to remove red blood cells and debris. Repeated enzymatic digestion of heart fragments was performed with collagenase (740U), trypsin (370U), and DNase (2880U) (Worthington Biochemical) agitating at 35° C. for three 10-minute and three 7-minute digestions. Digested supernatant solutions were centrifuged into a cell pellet and then separation of cell types using a Percoll® (GE Healthcare) gradient of 1.05, 1.06, and 1.082 g/mL allowed for a layer enriched with myocytes to be isolated. To remove fibroblasts, the cells were pre-plated on non-coated 150 mm culture plates for 45 min. Purified NNCM (95% pure by sarcomere staining) were then transferred to sterile tissue culture plates at a cell density of 1.75×10^6/35-mm plate. Collagen-coated glass coverslips in 24-well tissue culture plates were used for microscopy analysis and NNCM were plated at 3.2×10^5/well. Cells were incubated overnight in Dulbecco's Modified Eagle Medium/Ham's nutrient mixture F-12 (1:1) containing 2 mM glutamine, 3 mM NaHCO3, 15 mM HEPES, and […] gentamycin (DMEM/F12) plus 10% fetal bovine serum (FBS). DMEM/F12 with 10% FBS was changed to serum-free DMEM/F12 (DFSF) the following day. Control solution consisted of 140 mM NaCl, 6 mM KCl, 1.25 mM CaCl2, 6 mM HEPES, and 10 mM D-glucose buffered to pH 7.4, ischemic solution was buffered to pH 6.0, and consisted of the same components, except 8 mM KCl was added and no D-glucose was added. The ischemic buffer was purged of oxygen by bubbling 95% N2 and 5% CO2 gas into the medium for 1 hour before being applied to cells. A hypoxic chamber designed for storage in a 37° C. water jacketed tissue culture incubator was used to maintain an atmosphere of 95% N2 and 5% CO2 gas conditions for 18 hours overnight. Reperfusion was achieved by applying control buffer to cells for 4 hours in a normal culture incubator. After the treatment, cells were scraped off into a small portion of PBS. Cardiomyocyte cell lysates were subjected to Western Blot analysis.
# In vitro OxPC treatment and assessment of cell viability. Fresh DFSF was applied to NNCM on glass cover-slips and supplemented with 1, 2, 5, and 10 μM concentrations of OxPL lipids sonicated into PBS, forming micelles. Four OxPL species, POVPC, PONPC, PGPC, and PAzPC were applied to NNCM plates for 4 hours and compared to a non-oxidized PC standard PSPC. Plates were then washed with PBS before NNCM were analyzed for cell viability using vital dyes, calcein-acetoxymethyl ester (AM) and ethidium homodimer-1 (Invitrogen). Mitochondrial permeability after exposure to OxPL molecules was monitored by fluorescence microscopy using a solution of calcein-AM fluorescent dye with cobalt chloride (CoCl2) applied to cardiomyocytes cultured on glass coverslips.
# [2] = test system: neonatal rat cardiomyocytes (NNCM); assay: Neutralization of OxPL by E06: OxPL-induced cardiomyocyte cell death with E06 co-treatment; assay type: cell-based; conditions: 5 μM lipid alone, 2 hrs
# From the text: Cell culture of rat cardiomyocytes. All animal experiments performed conform to the NIH guidelines regarding animal experimentation. Neonatal rat cardiomyocytes (NNCM) were isolated from 1-2 day old Sprague-Dawley rat pups. Whole hearts were excised from rat pups by midline sternotomy after cervical dislocation. Hearts were washed and minced to adequately break up macroscopic structures before re-washing with cold filter sterilized phosphate buffered saline (PBS) containing 10 g/L of glucose to remove red blood cells and debris. Repeated enzymatic digestion of heart fragments was performed with collagenase (740U), trypsin (370U), and DNase (2880U) (Worthington Biochemical) agitating at 35° C. for three 10-minute and three 7-minute digestions. Digested supernatant solutions were centrifuged into a cell pellet and then separation of cell types using a Percoll® (GE Healthcare) gradient of 1.05, 1.06, and 1.082 g/mL allowed for a layer enriched with myocytes to be isolated. To remove fibroblasts, the cells were pre-plated on non-coated 150 mm culture plates for 45 min. Purified NNCM (95% pure by sarcomere staining) were then transferred to sterile tissue culture plates at a cell density of 1.75×10^6/35-mm plate. Collagen-coated glass coverslips in 24-well tissue culture plates were used for microscopy analysis and NNCM were plated at 3.2×10^5/well. […]
# In vitro OxPC treatment and assessment of cell viability. […] Plates were then washed with PBS before NNCM were analyzed for cell viability using vital dyes, calcein-acetoxymethyl ester (AM) and ethidium homodimer-1 (Invitrogen). Mitochondrial permeability after exposure to OxPL molecules was monitored by fluorescence microscopy using a solution of calcein-AM fluorescent dye with cobalt chloride (CoCl2) applied to cardiomyocytes cultured on glass coverslips.
# To evaluate the effect of neutralizing OxPL on cell viability, the IgM E06 antibody was used at a concentration of 10 μg/mL within cell culture. […] Cell viability was assessed as described above. […] Images were assessed using Adobe Photoshop CS5.1 Software.
# [3] = Binding properties of E06-scFv secreted into HEK293 culture supernatant; conditions: E06-scFv in HEK293 culture supernatant
# From the text: (§1) Generation and characterization of E06-scFv transgenic mice. The generation of transgenic C57BL/6 mice expressing the T15/E06 idiotype as a single chain variable antibody fragment—termed E06-scFv-Tg. In brief, the cDNAs encoding E06 variable regions of the heavy and light chains were linked with a 15-amino acid peptide by overlapping PCR, and cloned into an expression vector pSecTag2A (Invitrogen) containing a murine Ig kappa-chain leader sequence for secretion and c-myc and polyHis as epitope tags. […] The same construct was then cloned into the liver-specific expression vector pLiv7 and used to generate transgenic (Tg) mice in the C57BL/6 background expressing the E06-scFv transgene driven by the apoE promoter. Offspring were screened both for plasma E06-scFv titer and integration of the transgene by PCR amplification of the tail DNA. The transgenic E06-scFv founder lines were bred with each other to generate “homozygous” transgenic mice, and in turn, these were crossed into Ldl^−/− mice on the C57BL/6 background. All animals were genotyped for E06-scFv and Ldlr^−/−, respectively and plasma assayed to confirm expression of the E06-scFv by immunoassay. The E06-scFv mRNA was strongly expressed in liver, peritoneal macrophages and spleen, and to a lesser extent in heart. Plasma levels of the E06-scFv averaged 20-30 μg/ml in these studies.
# [4] = test system: E06-scFv-Tg/Ldlr−/− mice; assay: Myocardial ischemia-reperfusion (LAD ligation), histologic infarct size in E06-scFv-Tg/Ldlr−/− mice; assay type: in vivo, mouse
# From the text: as §1
# Adult (18-20-week-old) E06-scFv-Tg/Ldlr^−/− mice or Ldlr^−/− mice weighing 16-40 grams, were anesthetized with a mixture of Ketamine (50 mg/kg) and Xylazine (5 mg/kg) and 1.0% isoflurane. Mice were intubated with a pressure ventilator (Kent Scientific, PhysioSuite. Peak inspiration pressure was ˜13 cm H2O and inspiration rate 100-110. The skin over the mid thorax was shaved and cleansed with Betadine or Chlorhexidine solution. A skin incision was made from the midsternal line toward the left armpit, and the chest opened with a 1 cm lateral cut along the left side of the sternum, cutting between the 3rd and 4th ribs to expose the left ventricle of the heart. The ascending aorta and main pulmonary artery were identified; the left anterior descending (LAD) coronary artery was located as it traverses the anterior wall of the heart, between the left and right ventricles. LAD coronary artery occlusion was performed by tying an 8-0 prolene suture ligature on a piece of 2-0 silk suture. Occlusion of the artery was assessed by blanching of the territory of perfusion of the LAD coronary artery, along with acute ST segment elevation on limb-lead electrocardiographic leads. Following an ischemic period of 60 minutes, the suture was removed from around the LAD coronary artery. […]
# Histologic assessment of infarct size. […] The sizes of AAR and infarct area (IA) were quantified by computerized planimetry using ImageJ. […]
# [5] = Plasma levels of E06-scFv in transgenic mice (immunoassay); assay type: in vivo, mouse; conditions: transgenic mice constitutively expressing E06-scFv (apoE promoter)
# From the text: as §1
# [6] = E06-scFv-Tg/Ldlr−/− mice, 7 days after 60 minutes LAD ischemia and reperfusion
# [7] = E06-scFv-Tg/Ldlr−/− vs Ldlr−/− mice, 7 days after IR
molecule,measurement,setting,value
"CCCCCCCCCCCCCCCC(=O)OC[C@H](COP(=O)([O-])OCC[N+](C)(C)C)OC(=O)CCCCCCCC=O [PONPC, 1-palmitoyl-2-(9-oxo)nonanoyl-sn-glycero-3-phosphocholine]",cell death,[1]; 1 μM lipid,28.3±8.9%
same,cell death,[1]; 2 μM lipid,42.0±6.2%
same,cell death,[1]; 5 μM lipid,70.0±18.6%
same,cell death without E06,[2],25.3±3.4%
"CCCCCCCCCCCCCCCC(=O)OC[C@H](COP(=O)([O-])OCC[N+](C)(C)C)OC(=O)CCCC=O [POVPC, 1-palmitoyl-2-(5-oxovaleroyl)-sn-glycero-3-phosphocholine]",cell death,[1]; 10 μM lipid,68.6±14.8%
same,cell death without E06,[2],22.6±4.14%
CCCCCCCCCCCCCCCCCC(=O)O[C@H](COC(=O)CCCCCCCCCCCCCCC)COP(=O)([O-])OCC[N+](C)(C)C [PSPC],cell death,[1]; 1 μM lipid,7.6±5.1%
same,cell death,[1]; 2 μM lipid,9.1±10.5%
same,cell death,[1]; 5 μM lipid,10.5±1.6%
same,cell death,[1]; 10 μM lipid,5.5±1.6%
same,cell death without E06,[2],6.2±1.6%
B1,binding properties compared with intact E06,[3],mimic those of the intact E06
same,IA/AAR (infarct area as percentage of area at risk),[4]; [6],47.7±17.6%
same,IA/LV (infarct area as percentage of left ventricle),[4]; [6],16.3±7.5%
same,smaller IA/AAR compared to Ldlr−/− mice,[4]; [7],65.9%
same,smaller IA/LV compared to Ldlr−/− mice,[4]; [7],58.8% and 58.5%
same,plasma levels of E06-scFv,[5],20000 to 30000 ng/mL
